In ChEMBL document CHEMBL1159181, “Short and unexpectedly potent difluorostatone type inhibitors of HIV-1 protease” (Bioorg Med Chem Lett, 1993):

biological target: Human immunodeficiency virus type 1 protease (Human immunodeficiency virus 1, UniProt Q72874); experiment: Tested for inhibitory activity against the recombinant HIV-1 protease

SMILES | IC50 [µM] | Ki [µM]
CC(C)(C)[C@H](NC(=O)OCc1ccccc1)C(=O)NC(Cc1ccccc1)C(=O)C(F)(F)C(=O)NCc1ccccc1 (stereo partly drawn) | 0.027 | 
CON[C@H](C(=O)N[C@H](C(=O)NC(=O)C(F)(F)C(=O)[C@H](Cc1ccccc1)NC(=O)[C@H](C)NC(=O)[C@H](C)NC(=O)[C@H](CO)NC(=O)OC(C)(C)C)C(C)C)C(C)C |  | 160
CC(C)CC(NC(=O)OCc1ccccc1)C(=O)NC(Cc1ccccc1)C(=O)C(F)(F)C(=O)NCc1ccccc1 (stereo not drawn) | 750 | 
CC(C)(C)OC(=O)NC(Cc1ccc(O)cc1)C(=O)C(F)(F)C(=O)NCc1ccccc1 (stereo not drawn) |  | 0.0003
CC(C)C(NC(=O)OCc1ccccc1)C(=O)NC(Cc1ccccc1)C(O)C(F)(F)C(=O)NCc1ccccc1 (stereo not drawn) | 5000 | 
O=C(Cc1ccccc1)NCC(F)(F)C(=O)C(Cc1ccccc1)NC(=O)OCc1ccccc1 (stereo not drawn) |  | 60000
CC(C)C(NC(=O)OCc1ccccc1)C(=O)NC(Cc1ccccc1)C(=O)C(F)(F)C(=O)CCc1ccccc1 (stereo not drawn) | 0.1 | 
CN(Cc1ccccc1)C(=O)C(=O)C(=O)C(Cc1ccccc1)NC(=O)OCc1ccccc1 (stereo not drawn) |  | 5000
O=C(NC(Cc1cccc2ccccc12)C(=O)C(F)(F)C(=O)NCc1ccccc1)OCc1ccccc1 (stereo not drawn) |  | > 1000
NC(=O)C(F)(F)C(=O)C(Cc1ccccc1)NC(=O)OCc1ccccc1 (stereo not drawn) | 300 | 
CC(C)C(NC(=O)OCc1ccccc1)C(=O)NC(Cc1ccccc1)C(=O)C(F)(F)C(=O)NCc1ccccc1 (stereo not drawn) |  | 0.001
C[Si](C)(C)CC(NC(=O)OCc1ccccc1)C(=O)C(F)(F)C(=O)NCc1ccccc1 (stereo not drawn) |  | 12
C[Si](C)(C)CNC(=O)C(F)(F)C(=O)C(Cc1ccccc1)NC(=O)OCc1ccccc1 (stereo not drawn) |  | 0.6
O=C(NC(Cc1ccccc1)C(=O)C(F)(F)C(=O)NCc1ccccc1)OCc1ccccc1 (stereo not drawn) |  | 0.0006
CC(C)(C)OC(=O)NC(Cc1ccccc1)C(=O)C(F)(F)C(=O)NCc1ccccc1 (stereo not drawn) | 0.004 | 
CC(C)(C)OC(=O)NC(C[Si](C)(C)C)C(=O)C(F)(F)C(=O)NCc1ccccc1 (stereo not drawn) |  | 2.5
CC(C)(C)CNC(=O)C(F)(F)C(=O)C(Cc1ccccc1)NC(=O)OCc1ccccc1 (stereo not drawn) |  | 0.65
CCC[C@H](NC(=O)OCc1ccccc1)C(=O)NC(Cc1ccccc1)C(=O)C(F)(F)C(=O)NCc1ccccc1 (stereo partly drawn) |  | 400
